Columns and labels:
Assay type in all cases: cell-based
[1] = target: T1, Kv1.1/Kv1.1-L155P channels (Homo sapiens, UniProt Q09470, L155P); test: TEVC of oocytes co-injected with 50/50 wild-type/L155P Kv1.1 cRNA
T1 construct: expressed in transfected cells; host or cells: Xenopus laevis oocytes co-injected with 50/50 wild-type/L155P cRNA
Description: As previously described[24], we generated cRNA transcripts encoding human Kv1.1 (wild-type and mutant) and Kv1.2, by in vitro transcription using the mMessage mMachine kit (Thermo Fisher Scientific), after vector linearization, from cDNA sub-cloned into plasmids (pTLNx) incorporating Xenopus laevis β-globin 5’ and 3’ UTRs flanking the coding region to enhance translation and cRNA stability. We injected defolliculated stage V and VI Xenopus laevis oocytes (Xenoocyte, Dexter, MI, US) with Kv1 cRNAs (1–5 ng). We incubated the oocytes at 16 °C in ND96 oocyte storage solution containing penicillin and streptomycin, with daily washing, for 2 days prior to two-electrode voltage-clamp (TEVC) recording.
We performed TEVC at room temperature using an OC-725C amplifier (Warner Instruments, Hamden, CT) and pClamp10 software (Molecular Devices, Sunnyvale, CA) 2 days after cRNA injection as described in the section above. For recording, oocytes we placed in a small-volume oocyte bath (Warner) and viewed with a dissection microscope. We sourced chemicals from Sigma. We studied effects of plant extracts and of compounds, solubilized directly in bath solution (in mM): 96 NaCl, 4 KCl, 1 MgCl2, 1 CaCl2, 10 HEPES (pH 7.6). We introduced extracts or compounds into the oocyte recording bath by gravity perfusion at a constant flow of 1 ml per minute for 3 min prior to recording. Pipettes were of 1–2 MΩ resistance when filled with 3 M KCl. We recorded currents in response to voltage pulses between −80 mV and +40 mV at 10 or 20 mV intervals from a holding potential of −80 mV, to yield current-voltage relationships and examine activation kinetics. To calculate the voltage dependence of activation (V0.5), tail currents were recorded at a voltage pulse of −50 mV immediately following prepulse voltages between −80 mV and +40 mV. We analyzed data using Clampfit (Molecular Devices) and Graphpad Prism software (GraphPad, San Diego, CA, USA), stating values as mean ± SEM. We plotted raw or normalized tail currents vs. prepulse voltage and fitted with a single Boltzmann function:1 g=(A1−A2)/1+exp[V1/2−V/Vs]y+A2 where g is the normalized tail conductance, A1 is the initial value at -∞, A2 is the final value at +∞, V1/2 is the half-maximal voltage of activation and Vs the slope factor.

[2] = target: T2, Kv1.1/Kv1.1-L155P/Kv1.2 channels (Homo sapiens, UniProt Q09470, L155P); test: TEVC of oocytes co-injected 1:1:2 Kv1.1:Kv1.1-L155P:Kv1.2 cRNA; conditions: at 0.1 µM and higher
T2 construct: expressed in transfected cells; host or cells: Xenopus laevis oocytes co-injected 1:1:2 Kv1.1:Kv1.1-L155P:Kv1.2 cRNA
T2 sequence (Q09470 whole entry, stated change not applied): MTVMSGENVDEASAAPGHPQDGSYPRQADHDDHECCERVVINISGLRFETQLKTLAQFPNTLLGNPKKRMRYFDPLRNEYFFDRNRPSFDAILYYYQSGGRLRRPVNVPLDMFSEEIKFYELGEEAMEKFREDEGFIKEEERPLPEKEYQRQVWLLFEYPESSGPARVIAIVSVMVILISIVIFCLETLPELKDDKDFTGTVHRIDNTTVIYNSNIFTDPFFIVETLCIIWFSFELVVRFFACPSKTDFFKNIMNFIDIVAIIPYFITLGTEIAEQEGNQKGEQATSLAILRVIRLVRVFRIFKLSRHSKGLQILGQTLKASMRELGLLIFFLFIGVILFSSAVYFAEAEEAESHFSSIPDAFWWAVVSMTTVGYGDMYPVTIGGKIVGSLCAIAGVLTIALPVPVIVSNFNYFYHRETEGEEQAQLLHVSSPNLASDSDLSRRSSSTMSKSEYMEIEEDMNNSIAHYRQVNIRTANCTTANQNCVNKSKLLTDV
T2 sequence (Q09470 whole entry L155P): as the sequence (Q09470 whole entry, stated change not applied) above, with L155P counted along it
T2 sequence (P16389 whole entry partner): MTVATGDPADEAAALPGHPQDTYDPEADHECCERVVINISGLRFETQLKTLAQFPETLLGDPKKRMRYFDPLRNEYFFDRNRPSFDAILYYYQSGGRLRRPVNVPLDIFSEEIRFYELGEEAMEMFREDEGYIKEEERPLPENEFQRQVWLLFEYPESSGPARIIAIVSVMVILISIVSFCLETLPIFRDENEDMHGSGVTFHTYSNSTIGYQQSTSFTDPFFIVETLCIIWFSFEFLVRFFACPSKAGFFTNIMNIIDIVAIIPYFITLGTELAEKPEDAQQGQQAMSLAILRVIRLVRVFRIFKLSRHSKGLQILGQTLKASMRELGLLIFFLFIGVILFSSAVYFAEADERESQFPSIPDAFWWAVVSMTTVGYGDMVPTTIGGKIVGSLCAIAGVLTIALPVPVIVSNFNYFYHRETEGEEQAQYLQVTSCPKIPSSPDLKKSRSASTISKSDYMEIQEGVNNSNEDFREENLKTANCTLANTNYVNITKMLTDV
Description: (§1) Kv1.1 α subunits form heteromeric tetramers with other Kv1 subfamily α subunits, including Kv1.2, in the […] region of axons and some terminals, in the hippocampus (perforant input from entorhinal cortex, mossy fiber projections from granule cells to CA3, and CA3 axon collaterals)[7]–[11]. We therefore tested effects of gallic acid on Kv1.1/Kv1.2 heteromers generated in oocytes by co-injection of 1:1:2 parts Kv1.1:Kv1.1-E283K:Kv1.2 or Kv1.1:Kv1.1-L155P:Kv1.2 cRNA to approximate the Kv1.1/Kv1.2 heteromeric channel composition in EA1 patients heterozygous for either mutant KCNA1 allele. […]
(§2) We performed TEVC at room temperature using an OC-725C amplifier (Warner Instruments, Hamden, CT) and pClamp10 software (Molecular Devices, Sunnyvale, CA) 2 days after cRNA injection as described in the section above. […] We recorded currents in response to voltage pulses between −80 mV and +40 mV at 10 or 20 mV intervals from a holding potential of −80 mV, to yield current-voltage relationships and examine activation kinetics. To calculate the voltage dependence of activation (V0.5), tail currents were recorded at a voltage pulse of −50 mV immediately following prepulse voltages between −80 mV and +40 mV. We analyzed data using Clampfit (Molecular Devices) and Graphpad Prism software (GraphPad, San Diego, CA, USA), stating values as mean ± SEM. […]

Kv1.1-V408A channels = target: T3, Kv1.1-V408A channels (Homo sapiens, UniProt Q09470, V408A); test: TEVC of oocytes expressing 100% Kv1.1-V408A; conditions: compound 1 µM
T3 construct: expressed in transfected cells; host or cells: Xenopus laevis oocytes
T3 sequence (Q09470 whole entry V408A): as the sequence (Q09470 whole entry, stated change not applied) above, with V408A counted along it
Description: (§3) EA1 mutant G311D is in the S4-5 linker of Kv1.1 (Fig. 5a) and produces a 65% prepulse current reduction both in Kv1.1-G311D and in Kv1.1/Kv1.1-G311D channels[43],[44]; either channel type was minimally responsive to the plant extracts tested (Supplementary Figs. 3 and 4). EA1 mutant L328V (which is associated with tetany and hypomagnesemia) is located in the intracellular end of Kv1.1 S5 (Fig. 5a) and results in complete current loss in a dominant negative manner, i.e., Kv1.1-L328V and Kv1.1/Kv1.1-L328V channels are each nonfunctional. The traditional ataxia remedy plant extracts were unable to rescue Kv1.1-L328V or Kv1.1/Kv1.1-L328V function (Supplementary Figs. 5 and 6). EA1 mutant V408A is in the intracellular-proximal end of Kv1.1 S6 (Fig. 5a) and reduces current, speeds deactivation, and increases C-type inactivation of Kv1.1[46]. Here, Native American ataxia remedy extracts had relatively minor effects on Kv1.1-V408A activity, with nettle and Pacific ninebark (roots or leaves) inducing hyperpolarizing shifts in EM, and Pacific ninebark leaves inducing a negative shift in the voltage dependence of activation, although this was not quantifiable due to the very small tail currents (Supplementary Fig. 7). Effects of the extracts on Kv1.1/Kv1.1-V408A activity were also relatively minor (Supplementary Fig. 8). […]
as §2

[3] = target: T4, Kv1.1/Kv1.1-E283K/Kv1.2 channels (Homo sapiens, UniProt Q09470, E283K); test: TEVC of oocytes co-injected 1:1:2 Kv1.1:Kv1.1-E283K:Kv1.2 cRNA; conditions: even at 0.1 µM
T4 construct: expressed in transfected cells; host or cells: Xenopus laevis oocytes co-injected 1:1:2 Kv1.1:Kv1.1-E283K:Kv1.2 cRNA
T4 sequence (Q09470 whole entry, stated change not applied): as the sequence (Q09470 whole entry, stated change not applied) above
T4 sequence (Q09470 whole entry E283K): as the sequence (Q09470 whole entry, stated change not applied) above, with E283K counted along it
T4 sequence (P16389 whole entry partner): as the sequence (P16389 whole entry partner) above
Description: as §1, §2

Kv1.1-L328V channels = target: T5, Kv1.1-L328V channels (Homo sapiens, UniProt Q09470, L328V); test: TEVC of oocytes expressing 100% Kv1.1-L328V; conditions: compound 1 µM
T5 construct: expressed in transfected cells; host or cells: Xenopus laevis oocytes
T5 sequence (Q09470 whole entry L328V): as the sequence (Q09470 whole entry, stated change not applied) above, with L328V counted along it
Description: as §3, §2

T1 sequence (Q09470 whole entry, stated change not applied): as the sequence (Q09470 whole entry, stated change not applied) above
T1 sequence (Q09470 whole entry L155P): as the sequence (Q09470 whole entry, stated change not applied) above, with L155P counted along it

| Compound | hyperpolarization of EM ([1]; 1 µM) | shift in the voltage dependence of activation (V0.5 act) ([1]; 1 µM) | hyperpolarization of EM ([1]; 10 µM) | shift in the voltage dependence of activation (V0.5 act) ([1]; 10 µM) | hyperpolarization of EM ([1]; 100 µM) | shift in the voltage dependence of activation (V0.5 act) ([1]; 100 µM) | EM ([1]; in presence of 1 µM compound) | Slope ([1]; in presence of 1 µM compound) | V0.5 Normalized tail current ([1]; in presence of 1 µM compound) | EM ([1]; in presence of 10 µM compound) | Slope ([1]; in presence of 10 µM compound) | V0.5 Normalized tail current ([1]; in presence of 10 µM compound) | EM ([1]; in presence of 100 µM compound) | Slope ([1]; in presence of 100 µM compound) | V0.5 Normalized tail current ([1]; in presence of 100 µM compound) | rescue of channel activity [2] | effect on channel activity (Kv1.1-V408A channels) | rescue of channel activity [3] | effect on channel activity (Kv1.1-L328V channels) | effect on channel activity ([1]; compound 1 µM) |
| --- | --- | --- | --- | --- | --- | --- | --- | --- | --- | --- | --- | --- | --- | --- | --- | --- | --- | --- | --- | --- |
| O=C(O)c1cc(O)c(O)c(O)c1 [gallic acid] | –9.1 ± 0.8 mV | −6.8 ± 0.6 mV | −14.0 ± 0.6 mV | −12.5 ± 0.6 mV | −15.2 ± 0.7 mV | −14.1 ± 0.6 mV | -45.00 ± 0.78 mV | 4.84 ± 0.56 mV | -30.59 ± 0.60 mV | -48.89 ± 0.66 mV | 4.76 ± 0.51 mV | -36.38 ± 0.62 mV | -50.11 ± 0.69 mV | 4.68 ± 0.55 mV | -37.93 ± 0.62 mV | highly effective at rescuing | ineffective at rescuing activity | highly effective at rescuing | ineffective at rescuing activity |  |
| tannic acid |  |  |  |  |  |  |  |  |  |  |  |  |  |  |  |  | subtle improvements in Kv1.1-V408A function but slowed its activation |  | does not rescue | minimal |

— paper PMC10244465, “Native American ataxia medicines rescue ataxia-linked mutant potassium channel activity via binding to the voltage sensing domain” (Nature Communications, 2023)
